Here are results for 20 compounds from patent US6867207B2, “IL-5 inhibiting 6-azauracil derivatives” (Janssen Pharmaceutica N.V., priority 1997, dated 2005).

The structures appear in SMILES notation.

The test system of one experiment is IL-5 production. Kind of experiment: In vitro inhibition of IL-5 production in human blood (phytohemagglutinin-stimulated whole blood, ELISA).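 Further: values marked with an asterisk were tested at 10 µM and unmarked values at 1 µM.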 To be noted: test dose 1×10^−6 M, 48 hours. It counts as cell-based. A digest of the protocol: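 Heparinised blood from healthy male donors, diluted threefold in RPMI 1640, preincubated 60 min at 37° C with compound (0.02% DMSO vehicle), then stimulated with 2 μg/mL phytohemagglutinin for 48 h. Supernatant IL-5 measured by ELISA; percentage inhibition at 1×10^−6 M or 1×10^−5 M.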
(In general: An ELISA detects its analyte on a solid surface through an enzyme-linked reagent.)
With `Cc1sc(NC(c2ccc(Cl)cc2)c2ccc(-n3ncc(=O)[nH]c3=O)cc2Cl)nc1-c1ccccc1` (racemic) [Compound 412], the “% inh. (percentage inhibition of IL-5 production)” value was 16%.
Still for that read-out and setting: then `O=c1cnn(-c2cc(Cl)c(C(CSc3ccccn3)c3ccc(Cl)cc3)c(Cl)c2)c(=O)[nH]1` (racemic) [Compound 422, (±)-2-[3,5-dichloro[1-(4-chlorophenyl)-2-(2-pyridinylthio)ethyl]phenyl-1,2,4-triazine-3,5(2H,4H)-dione], with 87%; and `O=c1cnn(-c2cc(Cl)c(C(c3ccc(Cl)cc3)c3nc(-c4cccc(F)c4)cs3)c(Cl)c2)c(=O)[nH]1` (single isomer, unassigned) [Comp 318], with 81%.
As for `O=c1cnn(-c2cc(Cl)c(C(c3ccc(Cl)cc3)c3nc(-c4cccc(F)c4)cs3)c(Cl)c2)c(=O)[nH]1` (single isomer, unassigned) [Comp 319], the “% inh. (percentage inhibition of IL-5 production)” value worked out at 84%.
On the same count and under the same terms, then `O=c1cnn(-c2cc(Cl)c(C(Sc3ncccn3)c3ccc(Cl)cc3)c(Cl)c2)c(=O)[nH]1` (single isomer, unassigned) [Compound 346], with 86%; and `O=c1cnn(-c2cc(Cl)c(C(Sc3ncccn3)c3ccc(Cl)cc3)c(Cl)c2)c(=O)[nH]1` (single isomer, unassigned) [Compound 347], with 8%; and `O=c1cnn(-c2ccc(C(O)(c3ccc(Cl)cc3)c3nc4ccccc4s3)c(Cl)c2)c(=O)[nH]1` (centres unmarked) [Comp 111], with 61%.
Still for that read-out and setting: then `O=c1cnn(-c2ccc(C(c3ccncc3)c3ccc(Cl)cc3)c(Cl)c2)c(=O)[nH]1` (centres unmarked) [Comp 112], with 62%; and `O=c1cnn(-c2cc(Cl)c(C(c3ccncc3)c3ccc(Cl)cc3)c(Cl)c2)c(=O)[nH]1` (centres unmarked) [Comp 113], with 76%.
For the compound `O=c1cnn(-c2ccc(C(c3ccc(Cl)cc3)c3ccccn3)c(Cl)c2)c(=O)[nH]1` (centres unmarked) [Comp 114], the “% inh. (percentage inhibition of IL-5 production)” value came to 40%.
The same measure, in the same setting: the result for `O=c1cnn(-c2cc(Cl)c(C(c3ccc(Cl)cc3)c3ccccn3)c(Cl)c2)c(=O)[nH]1` (centres unmarked) [Comp 115] reads 71%; that for `O=c1cnn(-c2cc(Cl)c(C(c3ccc(Cl)cc3)c3cccnc3)c(Cl)c2)c(=O)[nH]1` (centres unmarked) [Comp 116], 74%.
On the same count and under the same terms, then `O=c1cnn(-c2ccc(C(O)(c3ccc(Cl)cc3)c3cccnc3)c(Cl)c2)c(=O)[nH]1` (centres unmarked) [Comp 117], with 34%; and `O=c1cnn(-c2ccc(C(c3ccc(Cl)cc3)c3nnc(-c4ccccc4)s3)c(Cl)c2)c(=O)[nH]1` (centres unmarked) [Comp 414], with 30%; and `NC(c1ccc(Cl)cc1)(c1nc2ccccc2s1)c1ccc(-n2ncc(=O)[nH]c2=O)cc1Cl` (centres unmarked) [Comp 416], with 79%.
In the case of `COC(c1ccc(Cl)cc1)(c1nc2ccccc2s1)c1ccc(-n2ncc(=O)[nH]c2=O)cc1Cl` (centres unmarked) [Comp 418], the “% inh. (percentage inhibition of IL-5 production)” value worked out at 47%.
Same read-out and setting: then `O=c1cnn(-c2cc(Cl)c(C(c3ccc(Cl)cc3)c3nc4ccccc4s3)c(Cl)c2)c(=O)[nH]1` (centres unmarked) [Comp 421], with 86%.
Take `Cn1cc(-c2ccccc2)nc1C(c1ccc(Cl)cc1)c1c(Cl)cc(-n2ncc(=O)[nH]c2=O)cc1Cl` (centres unmarked) [Comp 425]: the “% inh. (percentage inhibition of IL-5 production)” value stood at 70%.

Staying with this experiment, now noted: test dose 1×10^−6 M, 48 hours, read-out: % inh. (percentage inhibition of IL-5 production).
A word on the inhibition: it is the drop in the measured response relative to a control, in per cent. In the case of `O=c1cnn(-c2cc(Cl)c(C(Nc3ncccn3)c3ccc(Cl)cc3)c(Cl)c2)c(=O)[nH]1` (racemic) [Compound 413, (±)-2-[3,5-dichloro-4-[(4-chlorophenyl)[(2-pyrimidinyl)amino]-methyl]phenyl]-1,2,4-triazine-3,5(2H,4H)-dione], the inhibition at 1 µM turned out to be 59%.
On the same count and under the same terms, the result for `O=c1cnn(-c2cc(Cl)c(C(CO)c3ccc(Cl)cc3)c(Cl)c2)c(=O)[nH]1` (racemic) [Compound 420, (±)-2-[3,5-dichloro-4-[1-(4-chlorophenyl)-2-hydroxyethyl]phenyl]-1,2,4-triazine-3,5(2H,4H)-dione] reads 33%.
